Laboratory results reported in US20240197652A1, “KETAMINE IN THE TREATMENT OF […]” (Awakn LS Europe Holdings Limited, priority 2021, published 2024).

Experiments:
Format in all cases: in vivo, human
[1] = Plasma ketamine, HNK and norketamine levels, gambling disorder subjects (Example 7); settings: analyte = label; for peak plasma concentration: 100 mg racemic ketamine sublingual; for time of peak plasma concentration: post-administration of 100 mg racemic ketamine sublingual
Protocol: A study was completed on the use of ketamine to treat gambling disorder. Subjects were assessed for gambling disorder using the PGSI. Subjects were included if they received a PGSI score greater than 3. Five subjects in total were included (G1-G5). All five subjects were administered ketamine. Blood samples were collected from all five subjects. Blood samples were analysed to determine ketamine and ketamine metabolite levels, and each subject was assessed post-administration to determine the effectiveness of the treatment.
On Day 3, each subject returned on-site and was administered ketamine. 100 mg of racemic ketamine was administered in as sublingual lozenges.
Blood samples were collected every 10 minutes, from 0 minutes (the time of administration) to 90 minutes post-administration. Blood samples at each time point were analysed to determine plasma levels of (2S,6S;2R,6R)-Hydroxynorketamine (HNK).

[2] = tested on: subjects with gambling disorder; assay: Gambling Related Cognitions Scale (GRCS), gambling expectancy, Example 7; settings: for problem gambling expectancy score (GRCS) at 2-week follow up: after 100 mg racemic ketamine sublingual; for problem gambling expectancy score (GRCS), pre-administration: baseline before 100 mg racemic ketamine sublingual; for % change in problem gambling expectancy: pre-administration to 2-week follow up, 100 mg racemic ketamine sublingual
Protocol: The study spanned a total of 30 days (not counting initial contact and prescreening). Prescreening of all subjects was conducted by phone, and subjects recorded self-report measures, including the Sensitivity to Punishment and Sensitivity to Reward Questionnaire (SPSRQ) and the Gambling Related Cognitions Questionnaire. Prior to beginning treatment, each subject completed the Beck Depression Inventory (BDI) to determine a baseline depression score. Total scores of 0-13 are minimal, 14-19 are mild, 20-28 are moderate, and 29-63 are severe (Beck, Steer, and Brown, 1996).
The remaining follow-up sessions were completed online. Follow-up 1 was completed on Day 4, Follow-up 2 on Day 14, and Follow-up 3 on Day 30. At each follow-up session, the same self-report measures and behavioural tasks were completed.
The five-factor Gambling Related Cognitions Scale (GRCS) was also assessed. The GRCS evaluates gambling-related cognitive distortions for all types of gamblers, regardless of their gambling activities (poker, slots, horse racing, etc.) (Levesque et al., 2017). The GRCS contains five main domains, including inability to stop, expectancies, predictive control, illusion of control, and interpretative bias (Muela, Navas, and Perales, 2021). Gambling expectancy and inability to stop were predictive of problem gambling.

[3] = tested on: subjects with gambling disorder; assay: Cue reactivity task: picture pleasure rating and gambling desire rating, Example 7
[4] = tested on: subjects with gambling disorder; assay: Adverse events, Ketamine Side Effect Tool (KSET), Example 7; settings: five gambling disorder subjects; 100 mg racemic ketamine sublingual
Protocol: Adverse events were assessed with the Ketamine Side Effect Tool (KSET).

total plasma ghrelin = assay: Total plasma ghrelin, Example 8; settings: for total plasma ghrelin at 90 minutes post-lozenge / % change in total ghrelin: 100 mg racemic ketamine sublingual; for total plasma ghrelin, pre-administration: baseline before 100 mg racemic ketamine sublingual; for % change in total ghrelin: pre-administration to 90 minutes post-lozenge
Protocol: (§1) Blood samples were collected from all three subjects. Blood samples were analysed to determine ketamine and ketamine metabolite levels, as well as the hormones leptin and ghrelin. Self-report measures were conducted.
(§2) The treatment protocol commenced in substantially the same way as disclosed in the ketamine in subjects with gambling disorder study completed in EXAMPLE 7, with the exceptions outlined as follows: No behavioural tasks were completed. Blood samples collected every 10 minutes from the time of administration to 90 minutes post-administration were additionally analysed for leptin and ghrelin. Self-report measures included the Binge Eating Scale, the Adult Attachment Interview (AAI), a 20 question interview about the subject's recollections of their childhood (Sykes and Turner, 2015); the Childhood Trauma Questionnaire; the Morningness-Eveningness Questionnaire (MEQ), a 19-item questionnaire designed to assess when a respondent prefers to wake up or start sleep (American Thoracic Society, 2022); the DSM-5 Binge Eating Disorder diagnostic criteria; and the SPSRQ.
(§3) Changes in ghrelin and leptin were measured. Ghrelin stimulates appetite and food intake, increases fat deposition, and releases growth hormone. Obese binge eating disorder subjects often have reduced plasma ghrelin, possibly due to the downregulation of ghrelin from excess eating or body fat (Atalayer et al. 2013). Leptin forms a negative feedback loop between fat cells and the hypothalamus, wherein leptin secretion signals the hypothalamus to inhibit food intake and increase energy expenditure. Increased leptin may aid in reducing appetite cravings associated with binge eating disorder (Obradovic et al. 2021).

total plasma leptin = assay: Total plasma leptin, Example 8; settings: for total plasma leptin at 90 minutes post-lozenge / % change in total leptin: 100 mg racemic ketamine sublingual; for total plasma leptin, pre-administration: baseline before 100 mg racemic ketamine sublingual; for % change in total leptin: pre-administration to 90 minutes post-lozenge
Protocol: as §1, §2, §3

[5] = tested on: subjects with binge eating disorder; assay: Adverse events, KSET, Example 8; settings: three binge eating disorder subjects; 100 mg racemic ketamine sublingual
subjects with CSBD = assay: Adverse events, KSET, Example 10; settings: three CSBD subjects; 100 mg racemic ketamine sublingual
[6] = baseline before 100 mg racemic ketamine sublingual
[7] = one-week follow up after 100 mg racemic ketamine sublingual
[8] = two-week follow up after 100 mg racemic ketamine sublingual

NC1(c2ccccc2Cl)CCCCC1=O (racemic) [Norketamine, (R,S)-norketamine]
peak plasma concentration ([1]; subject G1): about 592 ng/ml | time of peak plasma concentration ([1]; subject G1): 80 min | peak plasma concentration ([1]; subject G2): about 1,450 ng/ml | time of peak plasma concentration ([1]; subject G2): 70 min | peak plasma concentration ([1]; subject G3): about 574 ng/ml | time of peak plasma concentration ([1]; subject G3): 80 min | peak plasma concentration ([1]; subject G4): about 495 ng/ml | time of peak plasma concentration ([1]; subject G4): 90 min | peak plasma concentration ([1]; subject G5): about 1,079 ng/ml | time of peak plasma concentration ([1]; subject G5): about 90 minutes

CNC1(c2ccccc2Cl)CCCCC1=O (racemic) [ketamine, 2-(2-chlorophenyl)-2-(methylamino)-cyclohexanone]
peak plasma concentration ([1]; subject G1): about 250 ng/ml | time of peak plasma concentration ([1]; subject G1): 30 min | peak plasma concentration ([1]; subject G2): about 405 ng/ml | time of peak plasma concentration ([1]; subject G2): 70 min | peak plasma concentration ([1]; subject G3): about 395 ng/ml | time of peak plasma concentration ([1]; subject G3): 80 min | peak plasma concentration ([1]; subject G4): about 291 ng/ml | time of peak plasma concentration ([1]; subject G4): 80 min | peak plasma concentration ([1]; subject G5): about 426 ng/ml | time of peak plasma concentration ([1]; subject G5): about 20 minutes | problem gambling expectancy score (GRCS) at 2-week follow up ([2]; subject G1): 5.5 | problem gambling expectancy score (GRCS), pre-administration ([2]; subject G1): 5 | % change in problem gambling expectancy ([2]; subject G1): +10% | problem gambling expectancy score (GRCS) at 2-week follow up ([2]; subject G2): 2.5 | problem gambling expectancy score (GRCS), pre-administration ([2]; subject G2): 5.5 | % change in problem gambling expectancy ([2]; subject G2): −54.55% | problem gambling expectancy score (GRCS) at 2-week follow up ([2]; subject G3): 4.5 | problem gambling expectancy score (GRCS), pre-administration ([2]; subject G3): 5.25 | % change in problem gambling expectancy ([2]; subject G3): −14.29% | problem gambling expectancy score (GRCS) at 2-week follow up ([2]; subject G4): 2.5 | problem gambling expectancy score (GRCS), pre-administration ([2]; subject G4): 3.75 | % change in problem gambling expectancy ([2]; subject G4): −33.33% | problem gambling expectancy score (GRCS) at 2-week follow up ([2]; subject G5): 1 | problem gambling expectancy score (GRCS), pre-administration ([2]; subject G5): 1.25 | % change in problem gambling expectancy ([2]; subject G5): −20% | gambling desire rating, mean [3, 6]: 2.25 | picture pleasure rating, mean [3, 6]: 3.25 | gambling desire rating, mean [3, 7]: −0.25 | picture pleasure rating, mean [3, 7]: 1.33 | gambling desire rating, mean [3, 8]: −0.25 | picture pleasure rating, mean [3, 8]: −0.83 | course of adverse events [4]: All adverse events were transient, and resolved two hours post-lozenge | overall tolerability [4]: well-tolerated, with no drop-outs | unexpected adverse reactions (KSET) [4]: No unexpected adverse reactions were observed | total plasma ghrelin at 90 minutes post-lozenge (total plasma ghrelin; subject BE1): 310 pg/mL | total plasma ghrelin, pre-administration (total plasma ghrelin; subject BE1): 254 pg/mL | % change in total ghrelin (total plasma ghrelin; subject BE1): +22.05% | total plasma ghrelin at 90 minutes post-lozenge (total plasma ghrelin; subject BE2): 231 pg/mL | total plasma ghrelin, pre-administration (total plasma ghrelin; subject BE2): 198 pg/mL | % change in total ghrelin (total plasma ghrelin; subject BE2): +16.67% | total plasma ghrelin at 90 minutes post-lozenge (total plasma ghrelin; subject BE3): 274 pg/mL | total plasma ghrelin, pre-administration (total plasma ghrelin; subject BE3): 291 pg/mL | % change in total ghrelin (total plasma ghrelin; subject BE3): −5.84% | total plasma leptin at 90 minutes post-lozenge (total plasma leptin; subject BE1): 9.11 ng/mL | total plasma leptin, pre-administration (total plasma leptin; subject BE1): 7.10 ng/mL | % change in total leptin (total plasma leptin; subject BE1): +28.31% | total plasma leptin at 90 minutes post-lozenge (total plasma leptin; subject BE2): 27.98 ng/mL | total plasma leptin, pre-administration (total plasma leptin; subject BE2): 21.88 ng/mL | % change in total leptin (total plasma leptin; subject BE2): +27.88% | total plasma leptin at 90 minutes post-lozenge (total plasma leptin; subject BE3): 11.23 ng/mL | total plasma leptin, pre-administration (total plasma leptin; subject BE3): 12.36 ng/mL | % change in total leptin (total plasma leptin; subject BE3): −9.14% | course of adverse events [5]: All adverse events were transient, and resolved two hours post-lozenge | overall tolerability [5]: well-tolerated, with no drop-outs | unexpected adverse reactions (KSET) [5]: no unexpected adverse reactions were observed | course of adverse events (subjects with CSBD): All adverse events were transient, and resolved two hours post-lozenge | overall tolerability (subjects with CSBD): well-tolerated, with no drop-outs | unexpected adverse reactions (KSET) (subjects with CSBD): No unexpected adverse reactions were observed

N[C@@]1(c2ccccc2Cl)CCC[C@@H](O)C1=O [HNK, (2S,6S;2R,6R)-hydroxynorketamine]
peak plasma concentration ([1]; subject G1): about 300 ng/ml | time of peak plasma concentration ([1]; subject G1): 80 min | peak plasma concentration ([1]; subject G2): about 319 ng/ml | time of peak plasma concentration ([1]; subject G2): 70 min | peak plasma concentration ([1]; subject G3): about 175 ng/ml | time of peak plasma concentration ([1]; subject G3): 90 min | peak plasma concentration ([1]; subject G4): about 134 ng/ml | time of peak plasma concentration ([1]; subject G4): 90 min | peak plasma concentration ([1]; subject G5): about 615 ng/ml | time of peak plasma concentration ([1]; subject G5): about 60 minutes
